Measured values reported in patent US7199162B1, “Use of treosulfan for patient conditioning before bone marrow or blood stem cell transplantation” (Medac Gesellschaft fur Klinische Spezialpraparate mbH, priority 1999, dated 2007).

What was measured:
[1] = system: donor-type chimerism in the recipient; assay: H-2-compatible allogenic bone-marrow transplantation trial (C.B10→B6); assay type: in vivo, mice; conditions: substance alone, treosulfan in fractionated doses
Experimental: Treosulfan administered in fractionated doses was also evaluated in an H-2-compatible allogenic bone-marrow transplantation trial (C.B10→B6). In this trial, an immunological reaction resulting in rejection of the transplant must be prevented by conditioning with e.g. treosulfan, before growth of the transplant is possible.

water solubility = assay type: physicochemical
[2] = pharmacokinetic properties after intravenous administration
[3] = system: haematopoietic stem cells in the host bone marrow; assay: cobblestone area forming cell assay (CAFC) on host bone marrow 24 hours after administration, murine bone-marrow transplantation model; assay type: in vivo; conditions: recipient mice (BG-Gpi-1b), 3×2500 mg/kg daily fractionation, CAFC 24 hours after administration
Experimental: The recipient mice (BG-Gpi-1^b) were treated with 3×2500 mg/kg or 7500 mg/kg (corresponding to 22.5 g/m^2) treosulfan or 50 mg/kg busulfan. 24 hours after administration the elimination of the different haematopoietic stem cells in the host bone marrow was ascertained using the in vitro cobblestone area forming cell assays (CAFC; cf. Ploemacher et al., Blood 78 (1991) 2527–2533).

[4] = non-haematological toxicity profile; conditions: general statement, in contrast to busulfan

Row | water-solubility (water solubility) | SMILES | induction of donor-type chimerism / conditioning before allogenic bone-marrow transplantation [1] | pharmacokinetic properties [2] | elimination of both the primitive and the "committed" progenitor cells [3] | non-haematological toxicity (liver, kidney, CNS, lung) [4]
1 | low solubility | CS(=O)(=O)OCCCCOS(C)(=O)=O [busulfan] | unable to bring about effective conditioning | – | – | –
2 | consistent high water-solubility | CS(=O)(=O)OC[C@H](O)[C@@H](O)COS(C)(=O)=O [treosulfan[…]] | almost complete and stable donor-type chimerism | reliable and linear pharmacokinetic properties | 3 to 5 powers of ten | no significant liver, kidney, CNS or lung toxicity
